In US20080293725A1, “Prognostic Molecular Markers” (priority 2004, published 2008):
Where “and” joins values, the source holds several entries; their conditions need not be identical. Identical values can stand only once.

Key:
sarcoma patients = assay: Clinical outcome of sarcoma patients treated with ET-743, matched with BRCA1, ERCC1 and XPD mRNA expression in tumor samples; type: in vivo, human; set-up: PFS6 rate (progression free survival higher than 6 months) / patients achieving progression free survival >=6 months (PFS6) / overall progression free survival at 6 months (Kaplan-Meier) / median survival at 12 months: concentration or dose not given beside the values
Protocol: In this study, 61 paraffin embedded tumoral samples from sarcoma patients before the treatment with any chemotherapy agent have been evaluated.
The majority of patients were treated before with one or several chemotherapy agents and later they followed a treatment with ET-743. The dosage of intravenous infusion ET-743 given to the different patients was within the range of 1.650-1.0 mg/m2; the schedules were 24 hours or 3 hour IV infusion with a three week interval between cycles; and the number of cycles ranged from 1 up to 25 cycles in some patients.
The clinical data from the patients was collected in the clinical data collection form and matched with the molecular data after completion of the mRNA expression levels determination (Table 1).
We examined XPD, ERCC1 and/or BRCA1 gene expression in formalin-fixed, paraffin-embedded tumor specimens from the 61 patients as previously described (Specht K. et al. Am J Pathol, 2001, 158, 419-429 and Krafft A E. et al. Mol Diagn. 1997, 3, 217-230). After standard tissue sample deparaffinisation using xylene and alcohols, samples were lysed in a tris-chloride, EDTA, sodium dodecyl sulphate (SDS) and proteinase K containing buffer. RNA was then extracted with phenol-chloroform-isoamyl alcohol followed by precipitation with isopropanol in the presence of glycogen and sodium acetate. RNA was resuspended in RNA storage solution (Ambion Inc; Austin Tex., USA) and treated with DNAse I to avoid DNA contamination. cDNA was synthesized using M-MLV retrotranscriptase enzyme. Template cDNA was added to Taqman Universal Master Mix (AB; Applied Biosystems, Foster City, Calif., USA) in a 20-μl reaction with specific primers and probe for each gene. The primer and probe sets were designed using Primer Express 2.0 Software (AB). Quantification of gene expression was performed using the ABI Prism 7900HT Sequence Detection System (AB). The primers and 5′ labeled fluorescent reporter dye (6FAM) probe were as follows: β-actin: forward 5′ TGA GCG CGG CTA CAG CTT 3′, reverse 5′ TCCTTAATGTCACGCACGATTT 3′, probe 5′ ACC ACC ACG GCC GAG CGG 3′; BRCA1: forward 5′ GGCTATCCTCTCAGAGTGACATTTTA 3′, reverse 5′ GCTTTATCAGGTTATGTTGCATGGT 3′, probe 5′ CCA CTC AGC AGA GGG 3′; ERCC1: forward 5′ GGGAATTTGGCGACGTAATTC 3′, reverse 5′ GCG GAG GCT GAG GAA CAG 3′, probe 5′CACAGGTGCTCTGGCCCAGCACATA 3′; XPD: forward 5′ GCTCCCGCAAAAACTTGTGT 3′, reverse 5′ CAT CGA CGT CCT TCC CAA A 3′, probe 5′ ACCCTGAGGTGACACCCCTGC 3′.
Relative gene expression quantification was calculated according to the comparative Ct method using β-actin as an endogenous control and commercial RNA controls (Stratagene, La Jolla, Calif.) as calibrators. Final results, were determined as follows: 2^−(^Δ^Ct sample−^Δ^Ct calibrator), where ΔCT values of the calibrator and sample are determined by subtracting the […]. In all experiments, only triplicates with a standard deviation (SD) of the Ct value <0.20 were accepted. In addition, for each sample analyzed, a retrotranscriptase minus control was run in the same plate to assure lack of genomic DNA contamination.
SAS v8.2 (statistical software) was used for all the statistical analysis. The statistical techniques for univariate, bivariate and multivariate variables were chosen, according with the nature of variables that will be analysed, i.e. when the dependent variable is a temporal variable with censor status the Cox regression would be applied, when correlation between variables will be computed the Pearson and/or Spearman measures would be used. P-values below 0.05 will be considered statistically significant in all tests, when appropriate 95% confidence intervals will be presented too.
A total of 61 paraffin embedded tumor samples were evaluated. […] These samples came from sarcoma patients before being treated with a chemotherapy agent.

[1] = tested on: HCC1937 breast cancer cell line; conditions: wild-type BRCA1 reconstituted vs BRCA1-negative HCC1937; cited from earlier work
[2] = BRCA1 mRNA <1.97 (low expression)
[3] = BRCA1 mRNA >=1.97 (high expression)
[4] = ERCC1 mRNA <5.86 (low expression)
[5] = ERCC1 mRNA >=5.86 (high expression)
[6] = Kaplan-Meier FIG. 2A, high BRCA1 expressers
[7] = Kaplan-Meier FIG. 2A, high BRCA1 expression
[8] = Kaplan-Meier FIG. 2A, low BRCA1 expression
[9] = Kaplan-Meier FIG. 2B, high ERCC1 expression
[10] = Kaplan-Meier FIG. 2B, low ERCC1 expression
[11] = Kaplan-Meier FIG. 2C (XPD), high expression
[12] = Kaplan-Meier FIG. 2C (XPD), low expression
[13] = XPD mRNA <1.99 (low expression)
[14] = XPD mRNA >=1.99 (high expression)

For `COc1cc2c(cc1O)CCN[C@]21CS[C@@H]2c3c(OC(C)=O)c(C)c4c(c3[C@H](COC1=O)N1[C@@H]2[C@H]2c3c(cc(C)c(OC)c3O)C[C@@H]([C@@H]1O)N2C)OCO4` [ET-743, ecteinascidin 743], the “increase in objective response, low BRCA1 subpopulation vs full cohort” value (sarcoma patients; 16% to 21%) was 1.3 fold, the “increase in PFS6 rate, low BRCA1 subpopulation vs full cohort” value (sarcoma patients; 24% to 38%) was 1.6 fold and the “overall response rate (RR), PR + Minor Responses” value (sarcoma patients; 55 evaluable patients) was 16%. For the same compound, the “overall response rate (RR), only Partial Responses” value (sarcoma patients; 55 evaluable patients) was 15%, the “patients achieving progression free survival >=6 months (PFS6)” value (sarcoma patients; 55 evaluable patients, (8 PR+1 MR+6 SD)/55) was 27% and the “PD (number of patients)” value (sarcoma patients; BRCA1 cohort, Total) was 30. For the same compound, the “PFS <6 (number of patients)” value (sarcoma patients; BRCA1 cohort, Total) was 38, the “PFS >=6 (number of patients)” value (sarcoma patients; BRCA1 cohort, Total) was 12 and the “PR + MR (number of patients)” value (sarcoma patients; BRCA1 cohort, Total) was 8. The “PD (number of patients)” value (sarcoma patients; BRCA1 mRNA <1.97) was 12, the “PFS <6 (number of patients)” value (sarcoma patients; BRCA1 mRNA <1.97) was 16 and the “PFS >=6 (number of patients)” value (sarcoma patients; BRCA1 mRNA <1.97) was 9. The “PR + MR (number of patients)” value (sarcoma patients; BRCA1 mRNA <1.97) was 5, the “objective response (PR+MR)” value (sarcoma patients; [2]) was 21% and the “patients reaching PFS6 (PFS >=6 months)” value (sarcoma patients; [2]) was 38% and 36%. The “PD (number of patients)” value (sarcoma patients; BRCA1 mRNA >=1.97) was 18, the “PFS <6 (number of patients)” value (sarcoma patients; BRCA1 mRNA >=1.97) was 22 and the “PFS >=6 (number of patients)” value (sarcoma patients; BRCA1 mRNA >=1.97) was 3. For the same compound, the “PR + MR (number of patients)” value (sarcoma patients; BRCA1 mRNA >=1.97) was 3, the “objective response (PR+MR)” value (sarcoma patients; [3]) was 11% and the “patients reaching PFS6 (PFS >=6 months)” value (sarcoma patients; [3]) was 12%. The “PD (number of patients)” value (sarcoma patients; ERCC1 cohort, Total) was 22, the “PFS <6 (number of patients)” value (sarcoma patients; ERCC1 cohort, Total) was 29 and the “PR + MR (number of patients)” value (sarcoma patients; ERCC1 cohort, Total) was 6. For the same compound, the “PD (number of patients)” value (sarcoma patients; ERCC1 mRNA <5.86) was 12, the “PFS <6 (number of patients)” value (sarcoma patients; ERCC1 mRNA <5.86) was 16 and the “PFS >=6 (number of patients)” value (sarcoma patients; ERCC1 mRNA <5.86) was 3. The “PR + MR (number of patients)” value (sarcoma patients; ERCC1 mRNA <5.86) was 2, the “objective response (PR+MR)” value (sarcoma patients; [4]) was 11% and the “patients reaching PFS6 (PFS >=6 months)” value (sarcoma patients; [4]) was 16%. For the same compound, the “PD (number of patients)” value (sarcoma patients; ERCC1 mRNA >=5.86) was 10, the “PFS <6 (number of patients)” value (sarcoma patients; ERCC1 mRNA >=5.86) was 13 and the “PFS >=6 (number of patients)” value (sarcoma patients; ERCC1 mRNA >=5.86) was 6. For the same compound, the “PR + MR (number of patients)” value (sarcoma patients; ERCC1 mRNA >=5.86) was 4, the “objective response (PR+MR)” value (sarcoma patients; [5]) was 21% and the “patients reaching PFS6 (PFS >=6 months)” value (sarcoma patients; [5]) was 32%. The “PFS (median)” value (sarcoma patients; [6]) was 1.5 months, the median survival (sarcoma patients; [6]) was 5.4 months and the “median survival at 12 months” value (sarcoma patients; [7]) was 35.71%. The “percentage of patients with PFS6” value (sarcoma patients; [7]) was 11.54%, the “PFS (median)” value (sarcoma patients; [8]) was 2.3 months and the median survival (sarcoma patients; [8]) was 11.7 months. For the same compound, the “median survival at 12 months” value (sarcoma patients; [8]) was 42.23%, the “percentage of patients with PFS6” value (sarcoma patients; [8]) was 41.67% and the median survival (sarcoma patients; Kaplan-Meier FIG. 2B, high ERCC1 expressers) was 19.4 months. For the same compound, the PFS6 (sarcoma patients; [9]) was 31.58%, the “median PFS” value (sarcoma patients; [9]) was 2.2 months and the PFS6 (sarcoma patients; [10]) was 21.05%. For the same compound, the “median PFS” value (sarcoma patients; [10]) was 1.4 months, the median survival (sarcoma patients; [10]) was 16.8 months and the PFS6 (sarcoma patients; [11]) was 30%. The “median PFS” value (sarcoma patients; [11]) was 2.0 months, the median survival (sarcoma patients; [11]) was 19.4 months and the median survival (sarcoma patients; Kaplan-Meier FIG. 2C (XPD), low expressers) was 16.8 months. The PFS6 (sarcoma patients; [12]) was 17.65%, the “median PFS” value (sarcoma patients; [12]) was 1.2 months and the “PD (number of patients)” value (sarcoma patients; XPD cohort, Total) was 22. For the same compound, the “PFS <6 (number of patients)” value (sarcoma patients; XPD cohort, Total) was 29, the “PFS >=6 (number of patients)” value (sarcoma patients; XPD cohort, Total) was 8 and the “PR + MR (number of patients)” value (sarcoma patients; XPD cohort, Total) was 5. The “PD (number of patients)” value (sarcoma patients; XPD mRNA <1.99) was 11, the “PFS <6 (number of patients)” value (sarcoma patients; XPD mRNA <1.99) was 14 and the “PFS >=6 (number of patients)” value (sarcoma patients; XPD mRNA <1.99) was 3. For the same compound, the “PR + MR (number of patients)” value (sarcoma patients; XPD mRNA <1.99) was 2, the “objective response (PR+MR)” value (sarcoma patients; [13]) was 12% and the “patients reaching PFS6 (PFS >=6 months)” value (sarcoma patients; [13]) was 18%. For the same compound, the “PD (number of patients)” value (sarcoma patients; XPD mRNA >=1.99) was 11, the “PFS <6 (number of patients)” value (sarcoma patients; XPD mRNA >=1.99) was 15 and the “PFS >=6 (number of patients)” value (sarcoma patients; XPD mRNA >=1.99) was 5. The “PR + MR (number of patients)” value (sarcoma patients; XPD mRNA >=1.99) was 3, the “objective response (PR+MR)” value (sarcoma patients; [14]) was 15% and the “patients reaching PFS6 (PFS >=6 months)” value (sarcoma patients; [14]) was 25%. For the same compound, the “median duration of the response (PR+MR)” value (sarcoma patients; all patients) was 13.6 months, the “range of duration of the response (PR+MR)” value (sarcoma patients; all patients) was 44.1 to 3.8 months and the range of survival (sarcoma patients; all patients) was 0.1-66.9 months. The median survival (sarcoma patients; all patients, 14 patients still censored) was 7.7 months, the “median survival (Kaplan-Meier)” value (sarcoma patients; all patients, FIG. 1) was 10.2 months and the “overall progression free survival at 6 months (Kaplan-Meier)” value (sarcoma patients; all patients, FIG. 1) was 27.65%. For the same compound, the “objective response (PR+MR)” value (sarcoma patients; full cohort with BRCA1 data (8/51)) was 16% and the “PFS6 rate (progression free survival higher than 6 months)” value (sarcoma patients; full cohort with BRCA1 data (12/50)) was 24%.

For `N.N.[Cl][Pt][Cl]` [cisplatin], the increase in resistance [1] is listed as 20 fold.
